Experimental data taken from article PMC2610245 (Drug metabolism and disposition: the biological fate of …, 2008).

Experiments:
P450 2C9 [1] = biological target: T1, P450 2C9 (Homo sapiens, UniProt P11712); assay: in vitro; conditions: recombinant enzyme, pH 7.4, in vitro half-life (t1/2)
P450 2C9 [2] = conditions: in humans; ref Obach et al., 2007; cited from earlier work
[3] = ref Kumar et al., 2002; Mano et al., 2007; cited from earlier work
P450 2C9 Baculosomes = P450 2C9 Baculosomes (Homo sapiens, UniProt P11712); assay: Partition ratio by titration method; conditions: 30 min pre-incubation, (S)-flurbiprofen as probe substrate
P450 2C9 [4] = biological target: T1, P450 2C9; assay: Metabolic stability by substrate depletion; conditions: 1 μM substrate, 0.04 μM P450 2C9, NADPH 2 mM, 37°C
P450 2C9 [5] = biological target: T1, P450 2C9; assay: P450 2C9 inactivation assay; conditions: Hill equation

T1 sequence (P11712 whole entry): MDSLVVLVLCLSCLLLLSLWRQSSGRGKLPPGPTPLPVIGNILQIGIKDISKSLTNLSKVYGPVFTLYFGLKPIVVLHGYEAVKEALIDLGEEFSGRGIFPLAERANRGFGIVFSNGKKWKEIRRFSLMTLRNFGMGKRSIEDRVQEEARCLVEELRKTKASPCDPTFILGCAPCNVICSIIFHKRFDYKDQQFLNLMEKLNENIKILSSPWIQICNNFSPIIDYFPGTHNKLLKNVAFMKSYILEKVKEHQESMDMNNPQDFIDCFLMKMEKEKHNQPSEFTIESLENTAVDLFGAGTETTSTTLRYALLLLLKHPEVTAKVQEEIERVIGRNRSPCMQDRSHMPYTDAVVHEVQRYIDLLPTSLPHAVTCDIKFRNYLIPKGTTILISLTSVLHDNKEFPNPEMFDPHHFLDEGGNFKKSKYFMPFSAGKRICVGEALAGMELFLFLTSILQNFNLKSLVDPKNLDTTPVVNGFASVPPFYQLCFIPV
Chain of P450 2C9 Baculosomes (P11712 whole entry): as above

O=C(O)COc1ccc(C(=O)c2cccs2)c(Cl)c1Cl [Tienilic Acid, Tienilic acid]
half-life at 1 μM (P450 2C9 [1]): 5 min

C[C@@H](C(=O)O)c1ccc(C(=O)c2cccs2)cc1 [(R)-suprofen]
half-life at 1 μM (P450 2C9 [1]): 35 to 38 min

CC(=O)C[C@@H](c1ccccc1)c1c(O)c2ccccc2oc1=O [(S)-warfarin]
fraction metabolized through P450 2C9 (fm2C9) (P450 2C9 [2]): 0.91

C[C@H](C(=O)O)c1ccc(-c2ccccc2)c(F)c1 [(S)-flurbiprofen]
cleared by direct glucuronidation of the carboxylate functional groups [3]: roughly 50%

O=C(O)Cc1ccccc1Nc1c(Cl)cccc1Cl [diclofenac]
cleared by direct glucuronidation of the carboxylate functional groups [3]: roughly 50%

C[C@H](C(=O)O)c1ccc(C(=O)c2cccs2)cc1 [(S)-suprofen]
half-life at 1 μM (P450 2C9 [1]): 35 to 38 min

CC(C(=O)O)c1ccc(C(=O)c2cccs2)cc1 (racemic) [(±)-Suprofen, (±)-suprofen]
partition ratio (P450 2C9 Baculosomes): 98 | turnover number (partition ratio + 1) (P450 2C9 Baculosomes): 99 | in vitro half-life (t1/2) (P450 2C9 [4]): 50 min | n (Hill coefficient) (P450 2C9 [5]; probe substrate (S)-flurbiprofen): 1.4 | n (Hill coefficient) (P450 2C9 [5]; probe substrate diclofenac): 1.3
